The source of these data is patent US20200390755A1, “COMPOUND FOR TREATING NERVOUS SYSTEM DISEASES AND USE THEREOF” (SHAANXI MICOT TECHNOLOGY CO., LTD., priority 2018, published 2020).

For one experiment, the system named is N171-82Q HD mice. Description: Immunohistochemical analysis of mHtt protein aggregates in neurocortex (EM48). Format: in vivo, mouse. The following applies: 5 mg/kg/d until 25 weeks, six visual fields, n = 3. As for the experimental part: 7-week-old N171-82Q HD male mice were paired with female B6C3F1/J hybrid mice to obtain newborn mice. From 21 days of age, male mice were housed in separate cages. 0.5 cm of mouse tail tissue was removed to extract DNA to determine the genotype of the mouse, such that N171-82Q HD mice and WT mice needed for the experiment were obtained. The mice were randomly divided into WT Vehicle group (normal mice), WT test compound group (administration group of normal mice, 5 mg/kg/d, n=10), HD Vehicle group (blank group of HD mice, n=15), HD test compound group (administration groups 1-5 of HD mice, 5 mg/kg/d, n=10). The test compound was suspended in 1% CMC-Na solution and administered by intragastric administration until the end of the study. The weights of the mice were measured every week. Behavioral tests were performed at 12 weeks, 18 weeks, and 24 weeks of age to investigate motor function. At 20 weeks, 3 samples of tissue from each group were used for western blotting and immunohistochemistry. At 24 weeks, MRI scans were performed. At the end of the study, the effect of the test compound on the mortality of mice was evaluated.
After the behavioral evaluation of the mice in each experimental group was completed and the administration continued until 25 weeks, 3 mice were taken from each group for […]. The right brain isolated from the mice was post-fixed in 4% paraformaldehyde for 24 h. The post-fixed brain tissue was put into 30% sucrose solution to allow it to sink to the bottom, and then brain slices with a thickness of 35 m were cut along the crown with a freezing microtome and placed in DPBS for storage. The stored brain slices were rinsed once with PBS, and blocked with 1 mL goat serum+9 mL PBS+1% TritonX-100 at room temperature on a shaker for 2˜3 h. After blocking, the brain slices were rinsed for 3 times with PBS, 5 min each time. Brain slices were taken out with a small brush and placed in a 24-well plate with primary antibody (anti-Huntingtin, clone mEM48, 1:25, mouse, prepared with blocking solution) for overnight incubation on a shaker in cold room at […]. After washing with PBS, brain slices were placed in a 24-well plate with secondary antibody (555, anti-mouse) for washing, and incubated on a shaker at room temperature for 2 h. After washing with PBS, brain slices was placed in a 24-well plate containing 800 μL DAPI (prepared with PBS, 1:10000) for staining on a shaker at room temperature for 10 min. The brain slices were taken out and placed in a 24-well plate containing 800 μL of PBS for washing on a shaker at room temperature for 10 min. The slide was placed flat on the experimental table with the front side facing upwards, and PBS was added dropwise on the slide to expand the brain slice in PBS. After drying, the mHtt protein was immunofluorescently stained with EM48 antibody (anti-Huntingtin) and photographed for observation.
After immunofluorescence staining of brain tissue, cells with mHtt protein aggregation in six visual fields in the right neurocortex were counted, and the average value was taken for analysis and statistics. A representative image of a neurocortex immunostained with the EM48 antibody for test compound example 1 is shown in FIG. 5, in which the scale bars are 50 μm, and the light-colored dots are cells with mHtt protein aggregation.

Experiment [1] has as its system rats with permanent cerebral ischemia. Description: Cerebral infarction volume by TTC staining in rats with permanent cerebral ischemia. Format: in vivo, SD rats. The following applies: 20 mg/kg by gavage, after 7 days of ischemia. The procedure:
SD rats, male, about 220-250 g, were provided by the Experimental Animal Center of Medical College of Xi'an Jiaotong University. Rats were randomly divided into groups of 14 animals/group. The experiment included a sham group, a model group, a positive control Edaravone group and test compound groups 1-5.12 hours before the operation, the rats were fasted and were free to drink water, and then used for the modeling method of middle cerebral artery occlusion with thread plug. The rats were fixed on a wooden board after anesthesia, the common carotid artery was ligated proximally, the external carotid artery was ligated distally, and the main internal carotid artery into skull was retained. A ligature line was reserved at the bifurcation of the internal carotid artery for temporarily clamping the distal end of the internal carotid artery using an arterial clip. A 3-0 nylon thread with a length of 5 cm and a spherical shape with a diameter of 0.3 mm at the tip was inserted into the common carotid artery through a small incision at the bifurcation. The arterial clamp was loosened, and the thread plug was slowly advanced to 18˜20 mm. When there was resistance, the progress of the thread was stopped. At this time, the nylon thread plug entered the middle artery and blocked the blood flow, and then the ischemic phase began. The skin was sutured. In the sham operation group, the same procedure was executed, except that no thread plug was inserted.
Administering was performed at 0 h, 3 h, 6 h and 12 h after ischemia, and then administering was performed once a day for 7 consecutive days. The test compound was prepared into a 4 mg/mL solution with 1% CMC-Na solution and administered by gavage. The edaravone group received an intravenous dose of 0.078 mg/kg.
3) Percentage of cerebral infarction volume after 7 days of ischemia: TTC staining was used to observe the infarct area.
The rats in each group were sacrificed by spinal dislocation […]. The brain tissue was quickly peeled off and placed in the refrigerator at −20° C. to freeze to an appropriate hardness to remove the olfactory bulb, cerebellum and low brain stem. Continuous coronary slices were performed at 1 mm intervals, to obtain a total of 5 slices. The slices were placed in 0.5% triphenyltetrazolium chloride (TTC) in phosphate buffer (pH=7.4) and incubated in a 37° C. incubator without light for 15 min, and then fixed in paraformaldehyde and observed (fixed time should be within 24 h). The normal brain tissue is rosy red, and infarcted brain tissue is pale. After taking the picture, the slice was scanned to save the image. The area of cerebral infarction and the total area of slices were calculated using Image J processing software.
Cerebral infarction volume (%)=(volume of the contralateral hemisphere of the operation−volume of the uninfarcted portion of the hemisphere of the occlusion)/volume of the contralateral hemisphere of the operation×100%
(2) Statistical analysis of data: SPSS18.0 statistical software was used for statistical analysis and the data of each group was expressed as the mean standard error (x±SEM). One-way ANOVA and multiple comparisons between groups were used to compare the averages of measurement data among multiple groups. Rank score test was used for behavioral grading data, and Kaplan-Meier method was used for mortality. P<0.05 was considered statistically significant.

For the molecule `O=c1cc(-c2ccc(N3CCCCC3)cc2)oc2c(O)c(O)ccc12` [Example 1, 7,8-dihydroxy-2-(4-(piperidin-1-yl)phenyl)-4H-chromen-4-one], in the experiment on N171-82Q HD mice, the “Average number of cells with mHtt protein aggregation” value came out at 152.500 ± 7.920. Further, in experiment [1], the “Volume percentage of cerebral infarction” value stood at 19.58 ± 9.56%.
The corresponding values for `COc1ccc2c(=O)cc(-c3ccc(N4CCCCC4)cc3)oc2c1OC` [Example 2, 7,8-dimethoxy-2-(4-(piperidin-1-yl)phenyl)-4H-chromen-4-one] are 158.449 ± 13.260 and 19.93 ± 8.89%.
The corresponding values for `CN(C)C1CCN(c2ccc(-c3cc(=O)c4ccc(O)c(O)c4o3)cc2)CC1` [Example 3, 2-(4-(4-(dimethylamino)piperidin-1-yl)phenyl)-7,8-dihydroxy-4H-chromen-4-one] are 148.794 ± 10.157 and 20.93 ± 7.65%.
The corresponding values for `CC1(C)CCN(c2ccc(-c3cc(=O)c4ccc(O)c(O)c4o3)cc2)CC1` [Example 4, 2-(4-(4,4-dimethylpiperidin-1-yl)phenyl)-7,8-dihydroxy-4H-chromen-4-one] are 155.286 ± 9.567 and 21.33 ± 7.68%.
Take `CC1CC(C)CN(c2ccc(-c3cc(=O)c4ccc(O)c(O)c4o3)cc2)C1` (stereo not shown) [Example 5, 2-(4-(3,5-dimethylpiperidin-1-yl)phenyl)-7,8-dihydroxy-4H-chromen-4-one]: in the experiment with N171-82Q HD mice, the “Average number of cells with mHtt protein aggregation” value was 151.687 ± 8.365. In addition, the “Volume percentage of cerebral infarction” value in experiment [1] was 20.50 ± 6.38%.
